Experimental data taken from patent publication US20260263431A1, “ARYL HYDROCARBON RECEPTOR AGONIST PRODRUGS AND METHODS OF USE THEREOF” (Allianthera (Suzhou) Biopharmaceutical Co., Ltd., priority 2022, published 2026).

Key:
S9 stability assay = type: in vitro ADME; details: read-out: mouse S9 Clint
Experimental: (§1) Compounds were tested under typical Caco-2 and S9 assay conditions.

[1] = Caco-2 permeability assay (AB); type: in vitro ADME; details: human, apical to basolateral
Experimental: as §1

[2] = Stability in BHI broth (vehicle stability control); type: in vitro ADME; details: 20 μM
[3] = In vitro anaerobic metabolism in rat fecal homogenate; type: in vitro ADME; details: 20 μM, anaerobic 37° C.
Experimental: (§2) The ability of the compounds of Formula (I) to release the active compound in the small or large intestine is assessed by introducing representative compounds of the disclosure to the contents of either a rodent small intestine or a rodent large intestine for up to 24 hours at 37° C. The amount of active drug released after the incubation period is determined by LC-MS/MS. Additional studies are conducted by incubating representative compounds of the disclosure with human fecal samples.
(§3) In Vitro Anaerobic Metabolism in Fecal Homogenates (vs. Control)
(§4) Compound 1 was dissolved in PBS (pH 7.4) to provide a 200 μM working solution. An aliquot of 50 μL volume was spiked to each 450 μL fecal homogenate incubation sample to provide an incubation concentration at 20 μM.
(§5) An estimated 1 g to 2 g wet weight of fecal material from healthy mice and rats (separately) was immediately collected in a pre-labelled 50 mL EP tube and stored at ambient room temperature. Based on the weight of each fecal material, a dilution with 0.01 M isotonic phosphate buffer (pH 7.0) is performed to provide a 12.5× diluted fecal homogenate. All fecal materials were stored at room temperature before being used in fecal homogenate preparation.
(§6) Under anaerobic conditions, each of the fecal specimen materials collected in 0.01 M isotonic phosphate buffer (pH 7.0) was homogenized by shaking and mixing with a stirrer. Each lot of the fecal homogenate material was added with an appropriate volume of 0.01 M isotonic phosphate buffer (pH 7.0) to provide fecal homogenate at 12.5× dilution. Under anaerobic condition in a nitrogen glove box purged with high purity nitrogen to ensure <1% oxygen level, the fecal homogenate was transferred to a clean container and diluted with 3 volumes of Brain Heart Infusion Broth (BHI) to provide a 50× diluted fecal homogenate. The diluted fecal homogenate matrix at an aliquot of 0.45 mL was dispensed into 2-mL EP tube, freshly prepared Compound 1 working solutions were then spiked to the fecal homogenate sample vials for incubation over the metabolic stability time-course.
(§7) Compound 1 was incubated at a target concentration of 20 μM in each fecal homogenate over a time course of 0, 1, 2, 4, 6 and 24 hours. Metabolic incubation at each time point was performed in triplicate. Incubation of the samples was performed in 2-mL EP tube. Into each pre-labeled sample vial, 50 μL of a Compound 1 working solution was accurately dispensed followed by the addition of the 0.45 mL pre-incubated fecal homogenate. Sample were capped, vortex mixed and incubated under an anaerobic environment at 37° C. At the end of each incubation time point, 1.0 mL of IS (Internal Standard) as a stop solvent was added to each sample with vortex mixed to stop the metabolic reactions. Samples at the 0-hour time point were pre-treated with the addition of IS stop solvent prior to the spiking of fecal homogenate and Compound 1. All samples were stored at −80° C. prior to LC-MS/MS assay. Samples are analyzed by LC-MS/MS. The MS detection is performed using a Sciex API 5500+ instrument. Each compound is analyzed by reverse phase HPLC.

[4] = In vitro anaerobic metabolism in mouse fecal homogenate; type: in vitro ADME; details: 20 μM, anaerobic 37° C.
Experimental: as §2, §3, §4, §5, §6, §7

AHR = molecular target: T1, AHR (Homo sapiens, UniProt P35869); test: AHR activity of the metabolite (reEC50 / abEC50); type: cell-based; details: relative to tapinarof at 1 μM
T1 sequence (P35869 11-848): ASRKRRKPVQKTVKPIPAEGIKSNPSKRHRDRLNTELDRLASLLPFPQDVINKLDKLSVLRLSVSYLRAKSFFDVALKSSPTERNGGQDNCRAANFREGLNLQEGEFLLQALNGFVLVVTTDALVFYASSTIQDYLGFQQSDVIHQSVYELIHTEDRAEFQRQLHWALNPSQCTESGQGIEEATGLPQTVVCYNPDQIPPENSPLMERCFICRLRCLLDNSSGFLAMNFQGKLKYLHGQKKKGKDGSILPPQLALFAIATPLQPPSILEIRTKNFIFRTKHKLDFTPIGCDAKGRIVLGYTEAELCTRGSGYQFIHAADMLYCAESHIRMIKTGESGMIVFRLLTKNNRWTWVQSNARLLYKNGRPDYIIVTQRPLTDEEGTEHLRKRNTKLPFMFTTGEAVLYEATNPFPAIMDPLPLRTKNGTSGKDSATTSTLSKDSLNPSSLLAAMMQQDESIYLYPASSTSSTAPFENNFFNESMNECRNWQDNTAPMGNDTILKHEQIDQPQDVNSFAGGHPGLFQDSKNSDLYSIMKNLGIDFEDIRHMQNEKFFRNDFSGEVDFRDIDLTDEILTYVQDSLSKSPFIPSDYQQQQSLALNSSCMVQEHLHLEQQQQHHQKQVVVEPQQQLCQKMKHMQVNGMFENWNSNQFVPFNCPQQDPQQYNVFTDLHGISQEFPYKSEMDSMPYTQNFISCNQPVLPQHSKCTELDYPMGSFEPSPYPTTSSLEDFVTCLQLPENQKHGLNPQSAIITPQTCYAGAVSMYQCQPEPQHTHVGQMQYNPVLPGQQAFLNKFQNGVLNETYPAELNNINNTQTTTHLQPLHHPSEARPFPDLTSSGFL
Experimental: The AHR activity of the metabolite is measured as AHR reEC50 (as % activation to tapinarof at 1 μM)—of 166.1 nM (69.5%) and a AHR abEC50 of 241.5 nM.

Compound | intrinsic clearance in mouse S9 (S9 stability assay) | Papp A→B [1] | further results
CC(C)c1c(O)cc(-c2cc3ccccc3cn2)cc1OS(=O)(=O)O [Compound 2, [3-hydroxy-2-isopropyl-5-(isoquinolin-3-yl)phenyl]oxidanesulfonic acid] | 1.18 µL/min/mg | – | –
CC(C)c1c(O)cc(-c2cc(F)c3cnc(N)nc3c2)cc1OS(=O)(=O)O [Compound 7, [5-(2-amino-5-fluoroquinazolin-7-yl)-3-hydroxy-2-isopropylphenyl]oxidanesulfonic acid] | – | 0.37 ×10⁻⁶ cm/s | –
CC(C)c1ncc(/C=C/c2ccccc2)cc1O [metabolite] | – | – | % activation to tapinarof at 1 μM (AHR): 69.5%
CC(C)c1c(OP(=O)(O)O)cc(-c2cnc3ccccc3c2)cc1OP(=O)(O)O [Compound 4, 2-isopropyl-3-(phosphonooxy)-5-(quinolin-3-yl)phenoxyphosphonic acid] | 3.43 µL/min/mg | < 0.2 ×10⁻⁶ cm/s | –
CC(C)c1c(O)cc(-c2ccc3cc(F)ccc3n2)cc1OS(=O)(=O)O [Compound 8, [5-(6-fluoroquinolin-2-yl)-3-hydroxy-2-isopropylphenyl]oxidanesulfonic acid] | 0.02 µL/min/mg | – | –
Cc1ccnc2cc(-c3cc(F)c(C(C)C)c(OP(=O)(O)O)c3)ccc12 [Compound 11, 3-fluoro-2-isopropyl-5-(4-methylquinolin-7-yl)phenyl dihydrogen phosphate] | 0.68 µL/min/mg | – | –

Now from value to molecule, other results behind:

intrinsic clearance in mouse S9 (S9 stability assay) | Papp A→B [1] | Compound | further results
0.7 µL/min/mg | 0.29 ×10⁻⁶ cm/s | CCCc1c(F)cc(/C=C/c2ccccc2)cc1OS(=O)(=O)O [Compound 9, {3-fluoro-5-[(E)-2-phenylethenyl]-2-propylphenyl}oxidanesulfonic acid] | –
4.91 µL/min/mg | 0.44 ×10⁻⁶ cm/s | CC(C)c1ncc(/C=C/c2ccccc2)cc1OS(=O)(=O)O [Compound 1, {2-isopropyl-5-[(E)-2-phenylethenyl]pyridin-3-yl}oxidanesulfonic acid] | Compound 1 Conc. Average ([2]; 0 hr): 23.2 µM; Compound 1 Conc. Average ([2]; 24 hr): 21.9 µM; Compound 1 Conc. Average ([3]; 0 hr): 25.05 µM; Compound 1 Conc. Average ([3]; 1 hr): 21.3 µM; Compound 1 Conc. Average ([3]; 2 hr): 20.55 µM; Compound 1 Conc. Average ([3]; 4 hr): 14.2 µM; Compound 1 Conc. Average ([3]; 6 hr): 3.02 µM; Compound 1 Conc. Average ([3]; 24 hr): 0.0657 µM; Compound 1 Conc. Average ([4]; 0 hr): 23.7 µM; Compound 1 Conc. Average ([4]; 1 hr): 21.8 µM; Compound 1 Conc. Average ([4]; 2 hr): 21.6 µM; Compound 1 Conc. Average ([4]; 4 hr): 19.2 µM; Compound 1 Conc. Average ([4]; 6 hr): 14.75 µM; Compound 1 Conc. Average ([4]; 24 hr): 0.0738 µM
– | 0.29 ×10⁻⁶ cm/s | CC(C)c1c(O)cc(-c2cnc3ccccc3c2)cc1OS(=O)(=O)O [Compound 3, [3-hydroxy-2-isopropyl-5-(quinolin-3-yl)phenyl]oxidanesulfonic acid] | –
1.26 µL/min/mg | 0.62 ×10⁻⁶ cm/s | CC(C)c1ncc(/C=C/c2ccc(F)cc2)cc1OS(=O)(=O)O [Compound 6, {5-[(E)-2-(4-fluorophenyl)ethenyl]-2-isopropylpyridin-3-yl}oxidanesulfonic acid] | –
2.64 µL/min/mg | 0.44 ×10⁻⁶ cm/s | CC(C)c1ncc(/C=C/c2ccccc2F)cc1OS(=O)(=O)O [Compound 5, {5-[(E)-2-(2-fluorophenyl)ethenyl]-2-isopropylpyridin-3-yl}oxidanesulfonic acid] | –
0.47 µL/min/mg | 0.25 ×10⁻⁶ cm/s | CC(C)c1c(F)cc(/C=C/c2ccccc2)cc1OS(=O)(=O)O [Compound 10, {3-fluoro-2-isopropyl-5-[(E)-2-phenylethenyl]phenyl}oxidanesulfonic acid] | –
